In patent US8106055B2, “Substituted amide compounds” (Gruenenthal GmbH, priority 2007, dated 2012):

What was measured:
human μ opiate receptor = molecular target: T1, human μ opiate receptor (Homo sapiens, UniProt P35372); test: Affinity for the human μ opiate receptor ([3H]-naloxone displacement, CHO-K1 receptor membrane preparation, SPA); assay type: binding; details: test concentration of 1 μM
T1 construct: purchased PerkinElmer Life Sciences, Zaventem, Belgium RB-HOM; host or cells: CHO-K1 cells (membrane preparation)
Method in brief: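 Scintillation proximity binding on human μ receptor membranes from CHO-K1 cells used 1 nmol/l [3H]-naloxone over 90 min at room temperature in 50 mmol/l Tris-HCl, 0.06% BSA. Percent inhibition was recorded at 1 μM.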

[1] = molecular target: T2, serotonin (5-HT) reuptake (Rattus norvegicus, UniProt P31652); test: Inhibition of serotonin (5HT) reuptake in synaptosomes from rat brain; assay type: biochemical; details: test concentration of 10 μM
T2 construct: synaptosomes are freshly isolated from areas of the rat brain; from tissue; host or cells: rat brain synaptosomes (P2 fraction)
Method in brief: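 Freshly isolated rat brain synaptosomes (P2 fraction) used for 5-HT reuptake. Test compound at 10 μM, activity given as % inhibition.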

T2 sequence (P31652 whole entry): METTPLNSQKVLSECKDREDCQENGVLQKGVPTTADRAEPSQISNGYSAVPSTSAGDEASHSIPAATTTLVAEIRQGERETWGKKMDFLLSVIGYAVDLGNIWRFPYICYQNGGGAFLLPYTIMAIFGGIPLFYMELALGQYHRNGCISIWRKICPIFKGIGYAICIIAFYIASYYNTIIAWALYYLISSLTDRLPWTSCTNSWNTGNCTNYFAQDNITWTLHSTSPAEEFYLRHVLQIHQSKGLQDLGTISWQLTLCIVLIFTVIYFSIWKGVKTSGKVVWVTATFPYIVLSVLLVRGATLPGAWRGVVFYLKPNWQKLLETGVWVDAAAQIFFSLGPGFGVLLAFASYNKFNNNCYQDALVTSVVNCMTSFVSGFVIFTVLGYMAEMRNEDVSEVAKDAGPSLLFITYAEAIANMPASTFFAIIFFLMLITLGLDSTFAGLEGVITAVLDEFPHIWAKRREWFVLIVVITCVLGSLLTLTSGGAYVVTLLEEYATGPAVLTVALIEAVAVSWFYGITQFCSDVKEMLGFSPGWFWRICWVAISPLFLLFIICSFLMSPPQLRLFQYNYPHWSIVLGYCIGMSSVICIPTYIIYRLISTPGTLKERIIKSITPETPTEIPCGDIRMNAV
T1 sequence (P35372 whole entry): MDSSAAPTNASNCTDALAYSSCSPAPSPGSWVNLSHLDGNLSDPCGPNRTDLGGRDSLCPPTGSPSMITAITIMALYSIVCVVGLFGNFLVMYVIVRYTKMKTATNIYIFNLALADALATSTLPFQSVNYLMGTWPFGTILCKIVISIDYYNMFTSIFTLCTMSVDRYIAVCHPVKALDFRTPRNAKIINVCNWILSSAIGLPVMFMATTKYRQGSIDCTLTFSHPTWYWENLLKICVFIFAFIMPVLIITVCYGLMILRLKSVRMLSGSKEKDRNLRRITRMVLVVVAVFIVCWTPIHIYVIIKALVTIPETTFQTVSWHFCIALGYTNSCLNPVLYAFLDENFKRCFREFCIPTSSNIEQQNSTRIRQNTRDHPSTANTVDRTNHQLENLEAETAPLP

CN(C)C(c1cccc(F)c1)C1CCC(CNC(=O)COC2CCN(S(=O)(=O)c3ccccc3)CC2)CC1 (centres unmarked) [Example 477]
μ (binding on the μ opioid receptor, % inhibition) (human μ opiate receptor): 51%
5-HT (inhibition of reuptake of serotonin, % inhibition) [1]: 95%

COc1ccc(S(=O)(=O)N(C)CCOCC(=O)NCC2CCC(C(c3ccc(F)cc3)N(C)C)CC2)cc1 (centres unmarked) [Example 508]
μ (binding on the μ opioid receptor, % inhibition) (human μ opiate receptor): 31%
5-HT (inhibition of reuptake of serotonin, % inhibition) [1]: 80%

CN(C)C(c1ccc(F)cc1)C1CCC(CNC(=O)COC2CCN(S(=O)(=O)c3ccc(F)cc3)C2)CC1 (centres unmarked) [Example 522]
μ (binding on the μ opioid receptor, % inhibition) (human μ opiate receptor): 35%
5-HT (inhibition of reuptake of serotonin, % inhibition) [1]: 98%

COc1ccc(S(=O)(=O)N2CCCCC2CCOCC(=O)NCC2CCC(C(CCc3ccccc3)N(C)C)CC2)cc1 (centres unmarked) [Example 535]
μ (binding on the μ opioid receptor, % inhibition) (human μ opiate receptor): 34%
5-HT (inhibition of reuptake of serotonin, % inhibition) [1]: 85%

COc1ccc(S(=O)(=O)N2CCCCC2COCC(=O)NCCC2CCC(C(c3ccc(Cl)cc3)N(C)C)CC2)c(OC)c1 (centres unmarked) [Example 474]
μ (binding on the μ opioid receptor, % inhibition) (human μ opiate receptor): 46%
5-HT (inhibition of reuptake of serotonin, % inhibition) [1]: 88%

COc1cc(C)c(S(=O)(=O)N2CCCC(OCC(=O)NCCC3CCC(C(c4ccc(F)cc4)N(C)C)CC3)C2)c(C)c1C (centres unmarked) [Example 468]
μ (binding on the μ opioid receptor, % inhibition) (human μ opiate receptor): 53%
5-HT (inhibition of reuptake of serotonin, % inhibition) [1]: 95%

COc1cc(C)c(S(=O)(=O)N2CCC(OCC(=O)NCC3CCC(C(CCc4ccccc4)N(C)C)CC3)C2)c(C)c1C (centres unmarked) [Example 503]
μ (binding on the μ opioid receptor, % inhibition) (human μ opiate receptor): 37%
5-HT (inhibition of reuptake of serotonin, % inhibition) [1]: 90%

COc1cc(C)c(S(=O)(=O)N(CCOCC(=O)NCC2CCC(C(c3ccc(Cl)cc3)N(C)C)CC2)Cc2ccccc2)c(C)c1 (centres unmarked) [Example 473]
μ (binding on the μ opioid receptor, % inhibition) (human μ opiate receptor): 34%
5-HT (inhibition of reuptake of serotonin, % inhibition) [1]: 64%

COc1ccc(S(=O)(=O)N2CCCCC2COCC(=O)NCCC2CCC(C(c3ccc(F)cc3)N(C)C)CC2)c(OC)c1 (centres unmarked) [Example 500]
μ (binding on the μ opioid receptor, % inhibition) (human μ opiate receptor): 43%
5-HT (inhibition of reuptake of serotonin, % inhibition) [1]: 90%

COc1ccc(S(=O)(=O)N2CCC(OCC(=O)NC3CCC(C(c4ccc(F)cc4)N(C)C)CC3)C2)cc1OC (centres unmarked) [Example 512]
μ (binding on the μ opioid receptor, % inhibition) (human μ opiate receptor): 42%
5-HT (inhibition of reuptake of serotonin, % inhibition) [1]: 86%

Cc1cc(C)c(S(=O)(=O)N2CCC(OCC(=O)NCCC3CCC(C(c4ccc(F)cc4)N(C)C)CC3)C2)c(C)c1 (centres unmarked) [Example 501]
μ (binding on the μ opioid receptor, % inhibition) (human μ opiate receptor): 45%
5-HT (inhibition of reuptake of serotonin, % inhibition) [1]: 77%

CN(C)C(c1ccc(F)cc1)C1CCC(CCNC(=O)COCCC2CCN(S(=O)(=O)c3ccccc3)CC2)CC1 (centres unmarked) [Example 470]
μ (binding on the μ opioid receptor, % inhibition) (human μ opiate receptor): 35%
5-HT (inhibition of reuptake of serotonin, % inhibition) [1]: 82%

CN(C)C(CCc1ccccc1)C1CCC(CNC(=O)COCCN2CCN(S(=O)(=O)c3ccccc3)CC2)CC1 (centres unmarked) [Example 526]
μ (binding on the μ opioid receptor, % inhibition) (human μ opiate receptor): 32%
5-HT (inhibition of reuptake of serotonin, % inhibition) [1]: 90%

COc1cc(C)c(S(=O)(=O)N2CCC(CCOCC(=O)NCC3CCC(C(c4ccc(Cl)cc4)N(C)C)CC3)CC2)c(C)c1C (centres unmarked) [Example 499]
μ (binding on the μ opioid receptor, % inhibition) (human μ opiate receptor): 37%
5-HT (inhibition of reuptake of serotonin, % inhibition) [1]: 75%

CN(C)C(CCc1ccccc1)C1CCC(CNC(=O)COC2CCCCC2N(C)S(=O)(=O)c2ccc(Cl)c(Cl)c2)CC1 (centres unmarked) [Example 451]
μ (binding on the μ opioid receptor, % inhibition) (human μ opiate receptor): 48%
5-HT (inhibition of reuptake of serotonin, % inhibition) [1]: 84%

COc1cc(C)c(S(=O)(=O)N2CCC(OCC(=O)NCCC3CCC(C(c4ccc(Cl)cc4)N(C)C)CC3)CC2)c(C)c1C (centres unmarked) [Example 472]
μ (binding on the μ opioid receptor, % inhibition) (human μ opiate receptor): 44%
5-HT (inhibition of reuptake of serotonin, % inhibition) [1]: 95%

COc1cc(C)c(S(=O)(=O)N2CCC(OCC(=O)NC3CCC(C(c4ccc(F)cc4)N(C)C)CC3)CC2)c(C)c1C (centres unmarked) [Example 454]
μ (binding on the μ opioid receptor, % inhibition) (human μ opiate receptor): 48%
5-HT (inhibition of reuptake of serotonin, % inhibition) [1]: 95%

CN(C)C(c1ccc(F)cc1)C1CCC(CCNC(=O)COC2CCN(S(=O)(=O)c3ccc(F)cc3)C2)CC1 (centres unmarked) [Example 518]
μ (binding on the μ opioid receptor, % inhibition) (human μ opiate receptor): 35%
5-HT (inhibition of reuptake of serotonin, % inhibition) [1]: 102%

COc1ccc(S(=O)(=O)N2CCCC2COCC(=O)NC2CCC(C(c3ccc(F)cc3)N(C)C)CC2)cc1 (centres unmarked) [Example 461]
μ (binding on the μ opioid receptor, % inhibition) (human μ opiate receptor): 43%
5-HT (inhibition of reuptake of serotonin, % inhibition) [1]: 94%

CN(C)C(c1ccc(F)cc1)C1CCC(CNC(=O)COC2CCN(S(=O)(=O)c3ccccc3)C2)CC1 (centres unmarked) [Example 532]
μ (binding on the μ opioid receptor, % inhibition) (human μ opiate receptor): 35%
5-HT (inhibition of reuptake of serotonin, % inhibition) [1]: 99%

COc1ccc(S(=O)(=O)N2CCCCC2COCC(=O)NC2CCC(C(c3ccc(F)cc3)N(C)C)CC2)c(OC)c1 (centres unmarked) [Example 524]
μ (binding on the μ opioid receptor, % inhibition) (human μ opiate receptor): 33%
5-HT (inhibition of reuptake of serotonin, % inhibition) [1]: 86%

CN(C)C(c1ccc(Cl)cc1)C1CCC(CNC(=O)COC2CCN(S(=O)(=O)c3ccccc3)CC2)CC1 (centres unmarked) [Example 471]
μ (binding on the μ opioid receptor, % inhibition) (human μ opiate receptor): 35%
5-HT (inhibition of reuptake of serotonin, % inhibition) [1]: 94%

COc1cc(C)c(S(=O)(=O)N2CCC(CCOCC(=O)NCC3CCC(C(CCc4ccccc4)N(C)C)CC3)CC2)c(C)c1C (centres unmarked) [Example 521]
μ (binding on the μ opioid receptor, % inhibition) (human μ opiate receptor): 39%
5-HT (inhibition of reuptake of serotonin, % inhibition) [1]: 89%

COc1cc(C)c(S(=O)(=O)N2CCC(CCOCC(=O)NCC3CCC(C(c4ccc(F)cc4)N(C)C)CC3)CC2)c(C)c1C (centres unmarked) [Example 481]
μ (binding on the μ opioid receptor, % inhibition) (human μ opiate receptor): 38%
5-HT (inhibition of reuptake of serotonin, % inhibition) [1]: 88%

CCN(CCOCC(=O)NCC1CCC(C(CCc2ccccc2)N(C)C)CC1)S(=O)(=O)c1c(C)cc(OC)c(C)c1C (centres unmarked) [Example 536]
μ (binding on the μ opioid receptor, % inhibition) (human μ opiate receptor): 43%
5-HT (inhibition of reuptake of serotonin, % inhibition) [1]: 84%

CN(C)C(c1ccc(F)cc1)C1CCC(CCNC(=O)COC2CCN(S(=O)(=O)c3ccc(Cl)cc3)C2)CC1 (centres unmarked) [Example 464]
μ (binding on the μ opioid receptor, % inhibition) (human μ opiate receptor): 46%
5-HT (inhibition of reuptake of serotonin, % inhibition) [1]: 88%

COc1ccc(S(=O)(=O)N2CCCC2COCC(=O)NCC2CCC(C(c3ccc(F)cc3)N(C)C)CC2)cc1 (centres unmarked) [Example 511]
μ (binding on the μ opioid receptor, % inhibition) (human μ opiate receptor): 39%
5-HT (inhibition of reuptake of serotonin, % inhibition) [1]: 98%

COc1cc(C)c(S(=O)(=O)N2CCCC(OCC(=O)NCCC3CCC(C(c4ccc(Cl)cc4)N(C)C)CC3)C2)c(C)c1C (centres unmarked) [Example 485]
μ (binding on the μ opioid receptor, % inhibition) (human μ opiate receptor): 46%
5-HT (inhibition of reuptake of serotonin, % inhibition) [1]: 92%

COc1ccc(S(=O)(=O)N2CCCCC2COCC(=O)NCCC2CCC(C(c3ccc(Cl)cc3)N(C)C)CC2)cc1OC (centres unmarked) [Example 540]
μ (binding on the μ opioid receptor, % inhibition) (human μ opiate receptor): 23%
5-HT (inhibition of reuptake of serotonin, % inhibition) [1]: 81%

CN(C)C(c1ccc(Cl)cc1)C1CCC(CNC(=O)COCCN(C)S(=O)(=O)c2ccc(Cl)cc2Cl)CC1 (centres unmarked) [Example 459]
μ (binding on the μ opioid receptor, % inhibition) (human μ opiate receptor): 36%
5-HT (inhibition of reuptake of serotonin, % inhibition) [1]: 68%

CN(C)C(c1ccc(F)cc1)C1CCC(CCNC(=O)COCC2CCCN(S(=O)(=O)c3ccccc3)C2)CC1 (centres unmarked) [Example 479]
μ (binding on the μ opioid receptor, % inhibition) (human μ opiate receptor): 42%
5-HT (inhibition of reuptake of serotonin, % inhibition) [1]: 97%

COc1ccc(S(=O)(=O)N2CCCCC2COCC(=O)NCCC2CCC(C(c3ccc(F)cc3)N(C)C)CC2)cc1OC (centres unmarked) [Example 462]
μ (binding on the μ opioid receptor, % inhibition) (human μ opiate receptor): 51%
5-HT (inhibition of reuptake of serotonin, % inhibition) [1]: 90%

CN(C)C(CCc1ccccc1)C1CCC(CNC(=O)COCCN(C)S(=O)(=O)c2c(Cl)cc(Cl)cc2Cl)CC1 (centres unmarked) [Example 515]
μ (binding on the μ opioid receptor, % inhibition) (human μ opiate receptor): 42%
5-HT (inhibition of reuptake of serotonin, % inhibition) [1]: 97%

COc1ccc(S(=O)(=O)N2CCCCC2COCC(=O)NC2CCC(C(c3ccc(F)cc3)N(C)C)CC2)cc1 (centres unmarked) [Example 450]
μ (binding on the μ opioid receptor, % inhibition) (human μ opiate receptor): 50%
5-HT (inhibition of reuptake of serotonin, % inhibition) [1]: 90%

CN(C)C(c1ccc(Cl)cc1)C1CCC(CCNC(=O)COCCC2CCN(S(=O)(=O)c3ccccc3)CC2)CC1 (centres unmarked) [Example 531]
μ (binding on the μ opioid receptor, % inhibition) (human μ opiate receptor): 23%
5-HT (inhibition of reuptake of serotonin, % inhibition) [1]: 98%

CN(C)C(c1ccc(F)cc1)C1CCC(CCNC(=O)COC2CCN(S(=O)(=O)c3ccc(Cl)cc3Cl)C2)CC1 (centres unmarked) [Example 456]
μ (binding on the μ opioid receptor, % inhibition) (human μ opiate receptor): 50%
5-HT (inhibition of reuptake of serotonin, % inhibition) [1]: 88%

COc1cc(C)c(S(=O)(=O)N(CCOCC(=O)NC2CCC(C(c3ccc(F)cc3)N(C)C)CC2)Cc2ccccc2)c(C)c1C (centres unmarked) [Example 523]
μ (binding on the μ opioid receptor, % inhibition) (human μ opiate receptor): 34%
5-HT (inhibition of reuptake of serotonin, % inhibition) [1]: 81%

COc1ccc(S(=O)(=O)N2CCCCC2COCC(=O)NCC2CCC(C(CCc3ccccc3)N(C)C)CC2)cc1 (centres unmarked) [Example 469]
μ (binding on the μ opioid receptor, % inhibition) (human μ opiate receptor): 50%
5-HT (inhibition of reuptake of serotonin, % inhibition) [1]: 87%

CN(C)C(c1ccc(F)cc1)C1CCC(NC(=O)COC2CCN(S(=O)(=O)c3ccccc3)C2)CC1 (centres unmarked) [Example 463]
μ (binding on the μ opioid receptor, % inhibition) (human μ opiate receptor): 38%
5-HT (inhibition of reuptake of serotonin, % inhibition) [1]: 97%

COc1cc(C)c(S(=O)(=O)N2CCC(OCC(=O)NCCC3CCC(C(c4ccc(F)cc4)N(C)C)CC3)CC2)c(C)c1C (centres unmarked) [Example 480]
μ (binding on the μ opioid receptor, % inhibition) (human μ opiate receptor): 38%
5-HT (inhibition of reuptake of serotonin, % inhibition) [1]: 98%

COc1cc(C)c(S(=O)(=O)N(C)CCOCC(=O)NCC2CCC(C(c3ccc(F)cc3)N(C)C)CC2)c(C)c1 (centres unmarked) [Example 458]
μ (binding on the μ opioid receptor, % inhibition) (human μ opiate receptor): 48%
5-HT (inhibition of reuptake of serotonin, % inhibition) [1]: 85%

COc1ccc(S(=O)(=O)N(C)CCOCC(=O)NCC2CCC(C(c3ccc(F)cc3)N(C)C)CC2)cc1OC (centres unmarked) [Example 514]
μ (binding on the μ opioid receptor, % inhibition) (human μ opiate receptor): 27%
5-HT (inhibition of reuptake of serotonin, % inhibition) [1]: 70%

CN(C)C(CCc1ccccc1)C1CCC(CNC(=O)COC2CCN(S(=O)(=O)c3ccc(Cl)cc3Cl)C2)CC1 (centres unmarked) [Example 496]
μ (binding on the μ opioid receptor, % inhibition) (human μ opiate receptor): 41%
5-HT (inhibition of reuptake of serotonin, % inhibition) [1]: 89%
